Results reported in patent US8299125B2, “Water-soluble triterpenephenol compounds having antitumor activity and the preparation thereof” (Shanghai Huatuo Medical Science Co., Ltd., priority 2007, dated 2012).

Tests used:
[1] = Stability assay of compound A during the preparation of the injection (HPLC peak area); type: physicochemical; conditions: for peak area: 210 nm
Procedure: (§1) Experimental conditions: the chromatography column was DIKMA C18 column (5μ, 250×4.6 mm); the detector was Agilent 1100 DAD detector; the detection wavelength was 210 nm; the liquid phase was acetonitrile-0.02M KH2PO4 (which contains 1‰ of tetrabutylammonium hydroxide, and the pH was adjusted to 7.35 with triethylamine) (35:65); the flow speed was 1 ml/min; and sample amount was 20 μl.
Sample: the solutions in each step of the preparation of the injection of compound A in example 6
Experimental data: the peak area of the solution before filtering with micro-pore filter film was 1084.4, the peak area after filtering was 1078.2, and the peak area after the moist heat sterilization was 1072.9.

[2] = Stability assay of compound A at meta-acidic or meta-alkalescence condition (HPLC peak area); type: physicochemical; conditions: 2 hours
Procedure: as §1, with “mm); The” for “mm); the”, “was Waters 3487” for “was Agilent 1100 DAD”, “1‰” for “1‰ of”, “(35:65); and” for “(35:65);”, “1 ml/min.” for “1 ml/min; and sample amount was 20 μl.”
Experimental method: the compound A was formulated into a solution of about 5 mg/ml with distilled water. 0.1 ml of the solution was added into the following solutions respectively: a) 1 ml of HCl diluted solution with a pH of 2; b) 1 ml of distilled water; c) 1 ml of sodium carbonate diluted solution with a pH of 10. After left standing at room temperature for 2 hours, 0.1 ml of each the above three kinds of solution were added into 1 ml of liquid phase solution, respectively, and 20 μl was sampled and injected into the chromatograph. The peak areas were then determined and calculated.

[3] = test system: human prostate cancer cell PC-3 transplanted into nude mice; test: Therapeutic activity against human prostate cancer cell PC-3 transplanted into nude mice; type: in vivo, BALB/Ca nude mice; conditions: for TV d24 / T/C (%) / RTV / TV d0: dl/3.5 w, i.p; for TV d24: 24th day; for T/C (%): relative tumor proliferation rate; for RTV: relative tumor volume Vt/V0; for TV d0: tumor volume at start of administration
Procedure: The therapeutic activity experiment of compound A against human prostate cancer cell PC-3 transplanted into nude mice was conducted by SHANGHAI INSTITUTE OF MATERIA MEDICA, CHINESE ACADEMY OF SCIENCES, under assignment by SHANGHAI HUATUO MEDICAL SCIENCE CO., LTD.
Tested Compound: Compound A.
Positive control medicine: mitomycin (MMC), produced by Kyowa Hakko kogyo Co Ltd. (batch no: 468AEF, 2 mg/bottle), was diluted with physiological saline when used.
Animal and transplanted tumor: BALB/Ca nude mice, female, 45˜50 days old, weight 20±1 g. The transplanted tumor of human prostate cancer cell PC-3 in nude mice was established by inoculating the nude mice with PC-3 cell line subcutaneously.
TV (mm^3) is the tumor volume, and the calculation equation is: TV=½×a×b^2, wherein a and b represent length and width respectively. d0 is the tumor volume measured as medicine is administered in divided cages, and d24 is the tumor volume on the 24th day of the experiment. RTV is the relative tumor volume, and the calculation equation is RTV=Vt/V0, wherein V0 is the tumor volume measured as medicine is administered in divided cages (i.e. d0), Vt is the tumor volume measured every time. The evaluation index of the antitumor activity is the relative tumor proliferation rate T/C (%) and the calculation equation is as follows: T/C(%)=(TRTV/CRTV)×100
TRTV: RTV of the therapeutic group; CRTV: RTV of the negative control group.
Evaluation standard of therapeutic effect: T/C (%)>60% is ineffective, T/C (%)≦60 and with a statistic result of p<0.05 represents effective.

For Cc1c(O)c(O)cc2c1C(S(=O)(=O)[O-])C=C1[C@@]2(C)CC[C@@]2(C)[C@@H]3C[C@](C)(C(=O)O)CC[C@]3(C)CC[C@]12C.[Na+] (some centres unmarked) [Compound A], the “stability during the injection preparation” value [1] was “good”, the peak area ([1]; after filtering) was 1078.2 and the peak area ([1]; after the moist heat sterilization (116° C., 30 min)) was 1072.9. For the same molecule, the peak area ([1]; solution before filtering with micro-pore filter film) was 1084.4, the “Percentage (based on the peak area in distilled water taken as 100%)” value ([2]; Distilled water (reference), room temperature) was 100% and the peak area ([2]; Distilled water, room temperature) was 1206926. The “stability at both meta-acidic condition and meta-alkalescence condition” value ([2]; pH 2 and pH 10, room temperature) was “good stability”, the peak area ([2]; pH = 2 (HCl diluted solution), room temperature) was 1247385 and the “Percentage (based on the peak area in distilled water taken as 100%)” value ([2]; pH = 2, room temperature) was 103.4%. For the same molecule, the peak area ([2]; pH = 10 (sodium carbonate diluted solution), room temperature) was 1232216, the “Percentage (based on the peak area in distilled water taken as 100%)” value ([2]; pH = 10, room temperature) was 102.1% and the “TV d24” value ([3]; 3 mg/kg) was 501 ± 133 mm^3. The “T/C (%)” value ([3]; 3 mg/kg) was 40.2%, the RTV ([3]; 3 mg/kg) was 3.8 ± 1.1 and the “TV d0” value ([3]; 3 mg/kg) was 135 ± 16 mm^3. For the same molecule, the “inhibition of the growth of human prostate cancer cell PC-3 transplanted into nude mice” value ([3]; mouse, in vivo) was “marked inhibition effects”.
With CO[C@@]12[C@H](COC(N)=O)C3=C(C(=O)C(C)=C(N)C3=O)N1C[C@@H]1N[C@@H]12 [mitomycin, reference compound] the “TV d24” value ([3]; 5 mg/kg) was 400 ± 224 mm^3, the “T/C (%)” value ([3]; 5 mg/kg) was 33.7% and the RTV ([3]; 5 mg/kg) was 3.1 ± 1.8. For the same molecule, the “TV d0” value ([3]; 5 mg/kg) was 135 ± 42 mm^3.
